Results as given in patent publication US9907852B2, “Anticancer agent and side-effect-alleviating agent” (National University Corporation University of Toyama, priority 2014, dated 2018).

How the values were obtained:
[1] = system: Human colorectal cancer cells LS174T; assay: Proportion of cancer stem cells in tumor by flow cytometry, LS174T (Test Example 7); assay type: in vivo, mice; settings: after termination of the treatment test (4 weeks)
Procedure: (§1) On the 14th day, the transplanted mice were divided into 4 groups, that is, (a) an untreated group, (b) a bevacizumab-administered group, (c) a Gogoshi extract-administered group, and (d) a group of combined administration of a Burdock Fruit extract and bevacizumab (combined administration group), and the treatment was continued for 4 weeks. When a Burdock Fruit extract was administered, 250 mg/kg of Burdock Fruit extract (25 mg/kg as arctigenin) of Example 1 was orally administered 6 times a week. Bevacizumab, as Avastin for intravenous drip injection (100 mg/4 ml) (Chugai Pharm. Co.), was intraperitoneally injected at a dose of 5 mg/kg once a week.
The cancer cells were then recovered from the tumor tissue, and using the double positive markers, CD133 and CD44, the proportion of CD133^+, CD44^+ cells in tumor after termination of the treatment test was evaluated by means of a FACS ARIA II flow cytometer (BD bioscience).

[2] = system: Human pancreatic cancer cell Suit 2; assay: Uptake of gadolinium DTPA in tumor tissue by MRI, blood stream in tumor (Test Example 1); assay type: in vivo, mice; settings: after intravenous injection of gadolinium DTPA; after 4 weeks of treatment
Procedure: (§2) Human pancreatic cancer cell Suit 2 (1×10^6 cells) was transplanted subcutaneously to BALB/cAJc1-nu/nu mice (CLEA Japan, Inc.) . On 21th day after the transplantation, the transplanted mice were divided into 4 groups, that is, (a) an untreated group, (b) a group to which a Burdock Fruit extract was administered, (c) a group to which bevacizumab was administered, and (d) a group to which gemcitabine was administered, and the treatment was continued for 4 weeks. The Burdock Fruit extract of Example 1 was mixed into feed at a rate of 0.5% (w/w) and the resultant was given to mice. The ingestion of feed was 3 to 5 g a day for a mouse, from which the intake of arctigenin was calculated as […]. Bevacizumab, as Avastin 100 mg/4 ml for intravenous injection (Chugai Pharm. Co.) , was intraperitoneally injected at a dose of 5 mg/kg once a week. As gemcitabine, an intravenous drip preparation of gemcitabine (Eli Lilly and Co.) was intraperitoneally injected at a dose of 100 mg/kg twice a week.
After 4 weeks from the starting of treatment, the uptake of gadolinium DTPA in the mouse tumor tissue was evaluated in the respective groups. […] From this photograph the signal intensity of gadolinium DTPA in the tumor tissue was measured. […]

tumor tissue [3] = assay: Survival period after 5 weeks of treatment (Test Example 2); assay type: in vivo, mice; settings: treatment terminated after 5 weeks, survival followed up
Procedure: For tumor tissue, a single administration of a Burdock Fruit extract, a single administration of bevacizumab and a combined administration of a Burdock Fruit extract and bevacizumab were performed over a period of 5 weeks. […] Thus, the suppression effect on ulcer generation in tumor was recognized in the Burdock Fruit extract-administered group and the concomitantly administered group compared with that in the untreated group and the bevacizumab-administered group. In the bevacizumab-administered group, the inhibitory effect for ulcer generation was recognized in comparison with the untreated group, though it was temporal. This effect is considered to be an inhibitory activity of bevacizumab for angiogenesis. On the other hand, when the combined administration of a Burdock Fruit extract in addition to bevacizumab, the inhibitory effect on ulcer generation was raised. This is considered that, in addition to the improved effect for blood stream in tumor by a single preparation of bevacizumab, the blood stream was further improved by combined administration of a Burdock Fruit extract which suppressed an occurrence of a hypoxia and undernutritional region and further suppressed angiogenesis. Thus, since the combined administration of arctigenin can markedly reduce a hypoxia and undernutritional region, it is expected to suppress the malignant transformation of cancer. […]

tumor tissue [4] = assay: Occurrence of ulcer in the tumor tissue (Test Example 2); assay type: in vivo; settings: rate of mice which generated ulcer in the tumor; administration over 5 weeks
Text: In the course of the growth of tumor, nutrition and oxygen have to be supplied over the grown entire tumor tissue through the blood vessels. In most of tumor, however, it is considered that these are not supplied sufficiently because of immature angioplasty to cause a partial necrosis of tissue and an ulcerous portion occurs. In this situation, in order to inspect the effect of normalization of intra-tumor blood stream by the above described Burdock Fruit extract, the occurrence of ulcer in the tumor tissue after the respective treatments was observed.
For tumor tissue, a single administration of a Burdock Fruit extract, a single administration of bevacizumab and a combined administration of a Burdock Fruit extract and bevacizumab were performed over a period of 5 weeks. […] Thus, the suppression effect on ulcer generation in tumor was recognized in the Burdock Fruit extract-administered group and the concomitantly administered group compared with that in the untreated group and the bevacizumab-administered group. In the bevacizumab-administered group, the inhibitory effect for ulcer generation was recognized in comparison with the untreated group, though it was temporal. This effect is considered to be an inhibitory activity of bevacizumab for angiogenesis. […]

[5] = system: Human pancreatic cancer cell Suit 2; assay: Tumor size in mice transplanted subcutaneously with Suit 2 (Test Example 1); assay type: in vivo; settings: after 4 weeks from the starting of treatment; extract 0.5% (w/w) in feed, bevacizumab 5 mg/kg i.p. once a week, gemcitabine 100 mg/kg i.p. twice a week
Procedure: as §2
The average tumor size after 4 weeks from the starting of treatment in the respective groups was as follows: (a) 228 mm^2 in the untreated group; (b) 189 mm^2 in the Burdock Fruit extract administered group; (c) 56 mm^2 in the bevacizumab administered group to which was; and (d) 68 mm^2 in the gemcitabine administered group.

[6] = system: Human colorectal cancer cells LS174T; assay: Tumor weight in mice transplanted subcutaneously with LS174T (Test Example 7); assay type: in vivo; settings: after 4 weeks; extract 250 mg/kg oral 6 times a week, bevacizumab 5 mg/kg i.p. once a week
Procedure: as §1
After termination of the therapeutic test, the tumor weight was measured in the respective groups. As results, the tumor weight after termination of the therapeutic test was as follows: 2.51 g in the untreated group, 1.33 g in the bevacizumab administered group, 1.25 g in the Burdock Fruit extract administered group, and 0.68 g in the combined administration group. Accordingly, in any group including the bevacizumab administered group, the Burdock Fruit extract administered group and the combined administration group, the inhibition of increase of tumor weight was recognized compared with the untreated group. […]

[7] = system: Human pancreatic cancer cells Miapaca-2; assay: Proportion of the cancer stem cells in tumor by flow cytometry, Miapaca-2 (Test Example 3); assay type: in vivo, mice; settings: after the therapeutic test (4 weeks)
Procedure: Human pancreatic cancer cells Miapaca-2 (ATCC CRL 1420) (5×10^6 cells/200 μl) were transplanted subcutaneously under the armpit of BALB/cAJcl nu/nu mice (CLEA Japan, Inc.) . After feeding for about 2-3 weeks, those of which cancer grew to about 100 mm^3 were selected and employed as the subject mice to be treated.
The subject mice of treatment were divided into 4 groups, that is, (a) an untreated group, (b) a group administered gemcitabine, (c) a group administered a Burdock Fruit extract, and (d) a group administered in combination with a Burdock Fruit extract and gemcitabine (combined administration group), and the treatment was continued for 4 weeks. The Burdock Fruit extract, 250 mg/kg prepared in Example 1 (25 mg/kg or more as arctigenin), was orally administered everyday (for 5 times a week). As gemcitabine, an intravenous drip preparation of gemcitabine (Eli Lilly and Co.) was used, and 150 mg/kg was intraperitoneally given twice a week.
The cancer cells were recovered from the tumor tissue after termination of the treatment test, and using the triple positive markers, CD24, CD44 and ESA (CD326) as well as the double positive markers, CD133 and CD44, and the proportion of CD44^+, CD24^+, CD326^+ cells (triple positive) and CD133^+, CD44^+ cells (double positive) was evaluated. In the evaluation, a FACS ARIA II flow cytometer (BD bioscience) was used.

[8] = system: Human pancreas cancer cells Miapaca-2 cells; assay: Survival in orthotopic graft model of pancreas cancer (Test Example 4); assay type: in vivo, mice
Procedure: Human pancreas cancer cells Miapaca-2 cells were suspended in a highly concentrated Matrigel solution (BD bioscience) at 5×10^6 cells/50 μl. A female BALB/cAJcl-nu/nu mice (8 weeks of age) (CLEA Japan, Inc.) were subjected to laparotomy under anesthesia, the above-prepared cell suspension was poured into pancreatic tissue and solidified, followed by suture and closing.
The mice after transplantation were divided into 4 groups (7 mice in one group), that is, an untreated group (Non treat); a group to which 250 mg/kg of Burdock Fruit extract (Kracie Pharm., GBS-01) containing 10% of arctigenin was orally administered every day (GBS-01); a group which was intraperitoneally given 150 mg/kg of gemcitabine (Eli Lilly & Co.) twice a week (Gemcitabine); and a group of combined administration of them(Combination), and the treatment was continued until all of the mice died.
The survival rate was calculated according to the Kaplan-Mayer method by making a curve of survival rate and calculating the median of survival rate (MST) (GraphPad-PRISM 6.2, MDF Co.). The significant difference was evaluated by means of Logrank (Mantel-COX) and Gehan-Breslow-Wilcoxon test. The calculated results were shown on an upper graph of FIG. 5.

[9] = system: Human pancreatic cancer cells Miapaca-2; assay: Tumor weight in mice transplanted subcutaneously with Miapaca-2 (Test Example 3); assay type: in vivo; settings: after 4 weeks; extract 250 mg/kg oral 5 times a week, gemcitabine 150 mg/kg i.p. twice a week
Procedure: Human pancreatic cancer cells Miapaca-2 (ATCC CRL 1420) (5×10^6 cells/200 μl) were transplanted subcutaneously under the armpit of BALB/cAJcl nu/nu mice (CLEA Japan, Inc.) . After feeding for about 2-3 weeks, those of which cancer grew to about 100 mm^3 were selected and employed as the subject mice to be treated. The subject mice of treatment were divided into 4 groups, that is, (a) an untreated group, (b) a group administered gemcitabine, (c) a group administered a Burdock Fruit extract, and (d) a group administered in combination with a Burdock Fruit extract and gemcitabine (combined administration group), and the treatment was continued for 4 weeks. […] After termination of the therapeutic test, the tumor weight was measured in the respective groups.

[10] = Toxicity test by concomitant repeated-dose administration (Test Example 8); assay type: in vivo, mice; settings: after 7 weeks
Procedure: SIX SCR-ICR mice (female of 6 weeks of age) (SLC Co.) were used in each of 4 groups, that is, (a) untreated group, (b) gemcitabine administered group, (c) Burdock Fruit extract administered group, and (d) group of combined administration of Burdock Fruit extract and gemcitabine (combined administration group). In each group, each of the therapeutic agents was administered continuously for a period of 7 weeks.
Burdock Fruit extract, 250 mg/kg prepared in Example 1 (25 mg/kg as arctigenin) , was orally administered 5 times a week. As gemcitabine, an intravenous drip preparation of gemcitabine (Eli Lilly and Co.) was used, and 100 mg/kg was intraperitoneally administered once a week.
During the term of administration for about 7 weeks, measurement of body weight, observation of skin and oral state, as well as observation of feces were practiced every 5 days. As a result, there was recognized no symptom which reminded any side effect such as inflammation in skin and mucous membrane, depilation or diarrhea in all of the administered groups. In addition, generally there was no difference of significance in body weight which is an indicator of nausea, loss of appetite, side effect in digestive system, and the like.
After termination of administration, the mice were anesthetized deeply, subjected to thoracotomy and complete blood drawing from heart. In addition, kidney, liver, spleen and lung were recovered, the weight was measured.
In addition, a hemocytic and biochemical examination was carried out using the collected blood.

[11] = gemcitabine 100 mg/kg i.p. once a week

Molecule: bevacizumab
- proportion of CD133+, CD44+ cells (double positive) in tumor [1]: 0.552%
- increase of signal intensity in the central part of tumor tissue (in words) [2]: tendency of increasing
- 50% survival period (tumor tissue [3]): 107 days
- duration until the generation of ulcer reached 50% (tumor tissue [4]): 10 days
- average tumor size [5]: 56 mm^2
- tumor weight [6]: 1.33 g

Molecule: Nc1ccn([C@@H]2O[C@H](CO)[C@@H](O)C2(F)F)c(=O)n1 [gemcitabine]
- ratio of CD133+, CD44+ cells (double positive) in tumor [7]: 3.5%
- ratio of CD44+, CD24+, CD326+ cells (triple positive) in tumor ([7]; average of 4 samples): 1.6%
- median of survival time (MST) ([8]; GBS-01 250 mg/kg oral every day, gemcitabine 150 mg/kg i.p. twice a week, until all mice died): 86 days
- prolongation of MST ([8]; against the untreated group (65 days)): 32.3%
- increase of signal intensity in the central part of tumor tissue (in words) [2]: no increase
- tumor weight [9]: 1.24 g
- average tumor size [5]: 68 mm^2
- hematocrit value (in words) [10]: lowering
- hemoglobin value (in words) [10]: lowering
- weight/body weight rate (%) of liver, lowering compared with the untreated group [10, 11]: about 20%
- weight/body weight rate (%) of spleen, lowering compared with the untreated group [10, 11]: about 20%
- number of erythrocytes compared with the untreated group ([10]; value as % of untreated): approximately 87%
- number of leukocytes compared with the untreated group ([10]; value as % of untreated): approximately 50%
- number of platelets compared with the untreated group ([10]; value as % of untreated): approximately 70%
- ALT, rise compared to the untreated group ([10]; hepatopathy marker): 102%
- AST, rise compared to the untreated group ([10]; hepatopathy marker): 46%
